Source: paper PMC7367873, “Dissecting the sequence determinants for dephosphorylation by the catalytic subunits of phosphatases PP1 and PP2A” (Nature Communications, 2020)

Test system: PP1c/PP2Ac
Assay: PP1c versus PP2Ac specificity of p-sites (pairwise comparison / hierarchical clustering of phosphoproteomic data)
Format: biochemical, human
Details: HeLa Kyoto lysate, 1 µM PP1c or PP2Ac
Description: For phosphoproteomics, HeLa Kyoto cells were incubated with 20 nM Calyculin A (CST, #9902) for 10–15 min. This time point was determined empirically to yield maximal phosphatase inhibition without cells showing pleiotropic effects. Subsequently, cells were placed on ice and washed twice with cold PBS and scraped in lysis buffer (100 mM NaCl, 10 mM Tris, 0.1% IGEPAL, 1 mM EDTA, 1 mM EGTA, 20 nM Calyculin A, 1x cOmplete Mini protease inhibitor cocktail (Sigma), 1 mM DTT, 1 mM MnCl2, pH 7.5). After 10 pushes through an injection needle (21 G, BD), lysate was cleared from the insoluble fraction by centrifugation (10 min, 10^4 rcf, 4 °C). Protein concentration was then determined by a Bradford Assay and equal amounts of 1 mg total protein were incubated with recombinant PP1c/PP2Ac or buffer at a final phosphatase concentration of 1 µM in a total volume of 200 µL for 1 h at 30 °C. Lysates were then immediately placed on ice. PhosStop […] (Roche) was added and proteins were denatured by adding urea to a final concentration of 8 M taking into account the volume increase. Samples were then snap-frozen in liquid nitrogen for storage and subsequent MS analysis.
Downstream analysis of the phosphoproteomic datasets was carried out using the software tool Perseus[66]. For analysis of phosphoproteomic experiments, row-wise, median-normalized data (see previous section) was linked to known regulatory sites by PhosphoSitePlus entries and categorical columns for treatments were assigned. Reverse peptides and potential contaminants were filtered. Next, categorical columns for biological functions and treatments were assigned. TMT reporter intensities were then transformed into log2. At this point, all data were then filtered for valid values in all three replicates of at least one condition. Next, the distribution of TMT reporter intensities was assessed visually by plotting count-based histogramms and in a multiscatter plot using the Pearson correlation as an estimate of reproducibility. Next, NA (=not available: missing) values were replaced by imputation from a normal distribution (width 0.3, down-shift 1.8, per column). The data quality was routinely assessed by two means: First, by plotting a histogram of peptide length vs. counts and visualization of imputed values to confirm a normal distribution of the data, and secondly by principal component analysis (default settings in Perseus) to judge the sample grouping.
For hierarchical clustering, the results of the one-way ANOVA were processed for two more steps in Perseus: first data were filtered for significant hits from the one-way ANOVA and then subjected to z-transformation. Hierarchical clustering images were produced using Euclidean distance, 300 clusters and 10 rounds of iteration.
Also all further data processing for protein enrichment and extraction of protein sequences in positions −5 to +5 relative to the p-sites of interest for subsequent motif analysis was performed using RStudio with R v3.3.2 using the packages tidyverse and BioStrings. In order to study the sequence specificity of PP1c and PP2Ac on the protein level, position specific probability matrices, representing the relative occurrence for each amino acid surrounding pSer/pThr were produced by extracting sequence information in positions −5 to +5 for all PP1c/PP2Ac-sensitive class I p-sites. Next, the count for each amino acid in each position was divided by the total of all counts for a certain position, resulting in relative abundance. […] Importantly, amino acids with less than 25 counts in PP1-sensitive/-insensitive or PP2A-sensitive/insensitive comparisons were excluded. For calculating a heat map directly comparing PP1c against PP2Ac, these fold changes were divided. […] Obtained p-values were adjusted for multiple testing using the method of Benjamini and Hochberg.
PP1c/PP2Ac-sensitive class I sites were divided into three classes as illustrated for PP1c in Supplementary Fig. 4c. […]

| Substance | GAB2 pS210 dephosphorylation in phosphoproteomic assay |
| --- | --- |
| LHQCISRRAENARSASFSQGTRASFLMRSDT [GAB2 210] | dephosphorylated by PP1c but not PP2Ac |

Same assay, conditions: p-site significantly decreased exclusively by PP1c or PP2Ac; 1 µM phosphatase, HeLa Kyoto lysate, 1 h, 30 °C

| Sensitivity (phosphatase exclusively dephosphorylating the p-site) | Substance |
| --- | --- |
| PP1c | USP8 718: 14-3-3 interaction site, window LKRSYSSPDIT |
| PP2Ac | SRSF11 207: S/R-rich splicing factor p-site, window AAGLVSPSLKS |
| PP1c | ISPTIVQQFGYQRRASDDGKLTDPSKTSNTI [RAF1 43] |
| PP1c | SRSF7 192: S/R-rich splicing factor p-site, window SRYFQSPSRSR |
| PP1c | SRSF5 231: S/R-rich splicing factor p-site, window KSRSVSRSPVP |
| PP1c | SRSF8 158: S/R-rich splicing factor p-site, window SRYSRSPYSRS |
| PP1c | SRSF1 199: S/R-rich splicing factor p-site, window VDGPRSPSYGR |
| PP2Ac | SRSF4/5/6 113;117;119: S/R-rich splicing factor p-site, window VENLSSRCSWQ |
| PP1c | SRSF2 189: S/R-rich splicing factor p-site, window RSRSRSRSPPP |
| PP2Ac | YAP1 127: 14-3-3 interaction site, window VRAHSSPASLQ |
| PP1c | NIFSRGANRMRGRLGSVDSFERSNSLASEKD [TBC1D4 588] |
| PP1c | KRKSKSRSRSKRPPKSPEEEGQMSS______ [SRSF8 273] |
| PP1c | HPPRKISTEDINKRLSLPADIRLPEGYLEKL [CDK16 119] |
| PP2Ac | HSF1 307: 14-3-3 interaction site, window PSPPQSPRVEE |
| PP1c | SRSF8 163: S/R-rich splicing factor p-site, window SPYSRSPYSRS |
| PP1c | EVPVPPPVPPRRRPESAPAESSPSKIMSKHL [SOS1 1161] |
| PP1c | SPPPVSKRESKSRSRSKSPPKSPEEEGAVSS [SRSF2 206] |
| PP1c | SRSF2 191: S/R-rich splicing factor p-site, window RSRSRSPPPVS |
| PP2Ac | HSF1 303: 14-3-3 interaction site, window KEEPPSPPQSP |
| PP1c | KGDIKSKSRSRSQSRSNSPLPVPPSKARSVS [SRSF6 301] |
| PP1c | SRSF5 233: S/R-rich splicing factor p-site, window RSVSRSPVPEK |
| PP1c | SRSF10 133: S/R-rich splicing factor p-site, window RSRSRSFDYNY |
| PP1c | LHQCISRRAENARSASFSQGTRASFLMRSDT [GAB2 210] |
